Reference: patent publication EP2436673A1 (Niaraki, Anna, priority 2010, dated 2012)
Values belong to the molecule of their own block, whether it stands above or below them.

Assays:
Aβ1-42 monomers = biological target: T1, Aβ1-42 monomers (Homo sapiens, UniProt P05067); assay: Surface Plasmon Resonance (SPR) binding to immobilized Aβ1-42 monomers
T1 construct: The native Aβ1-42 peptide was then obtained from the depsi peptide; made in house; host or cells: chemical peptide synthesis (depsi-peptide, then pH switch)
Method: (§1) For these studies we used the ProteOn XPR36 (Biorad) apparatus, which has six parallel flow channels that can be used to uniformly immobilize strips of six "ligands" on the sensor surface. Aβ1-42 "monomers" or fibrils were immobilized in two of these parallel-flow channels of a GLC sensor chip (Biorad) using amine-coupling chemistry. Briefly, after surface activation the peptide solutions (10 µM in acetate buffer pH 4.0) were injected for 5 min at a flow rate of […], and the remaining activated groups were blocked with ethanolamine, pH 8.0. Bovine serum albumin (BSA) was also immobilized in another parallel flow channel, as a reference protein. […] A fourth surface was prepared using the same immobilization procedure but without addition of the peptide ("empty", reference surface).
(§2) The fluidic system of Proteon XPR36 can automatically rotate 90° so that up to six different "analytes" (e.g. different liposomes prepations, or different concentrations of the same preparation) could be injected simultaneously over all the different immobilized molecules.
(§3) ProteOn analysis software (BioRad) was used for the fitting of sensorgrams, to obtain the association and dissociation rate constants of the binding (Kon and Koff) and the corresponding KD value. The simplest 1:1 interaction model (Langmuir model) is used at first.

Aβ1-42 fibrils = biological target: T2, Aβ1-42 fibrils (Homo sapiens, UniProt P05067); assay: Surface Plasmon Resonance (SPR) binding to immobilized Aβ1-42 fibrils
T2 construct: made in house; host or cells: chemical peptide synthesis (depsi-peptide, pH switch, then acid incubation to fibrils)
Method: To prepare Aβ1-42 fibrils, the switched peptide solution was diluted with water to 100 µM, acidified to pH 2.0 with 1 M HCl, and left to incubate for 24 hrs at 37 °C [56].
as §1, §2, §3

Aβ aggregation = details: reported in literature; cited from earlier work
[1] = SPR, liposomes 18 at 300 nM exposed curcumin-derivative, plain liposomes at 1360 nM
[2] = additional, fibril-specific binding component, two-sites model

T2 sequence (P05067 672-713 limits assumed): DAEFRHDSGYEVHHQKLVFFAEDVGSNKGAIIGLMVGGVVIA
T1 sequence (P05067 672-713 limits assumed): as above

binding to Aβ1-42 fibrils (in words) (Aβ1-42 fibrils; [1]): only bound to Aβ fibrils
Compound: Nc1c(/N=N/c2ccc(-c3ccc(/N=N/c4cc(S(=O)(=O)O)c5ccccc5c4N)cc3)cc2)cc(S(=O)(=O)O)c2ccccc12 [Congo-Red, reference compound]
binding to Aβ1-42 monomers (in words) (Aβ1-42 monomers; [1]): only bound to Aβ fibrils but not "monomers"

Kd (Aβ1-42 monomers; Aβ1-42 monomers, rough estimate from Kon and Koff after global fitting, one-site model): 23 µM | Kd (Aβ1-42 fibrils; [2]): 7 µM | koff (Aβ1-42 fibrils; [2]): 0.001 s⁻¹ | kon (Aβ1-42 fibrils; [2]): 163 M⁻¹ s⁻¹
Compound: COc1cc(/C=C/c2cc(/C=C/c3ccc(O)c(OC)c3)n(CC(=O)NCc3cn(CCOCCOCCO)nn3)n2)ccc1O [TREG, 2-(3,5-bis((E)-4-hydroxy-3-methoxystyryl)-1H-pyrazol-1-yl)-N-((1-(2-(2-(2-hydroxyethoxy)ethoxy)ethyl)-1H-1,2,3-triazol-4-yl)methyl)acetamide]

Compound: COc1cc(/C=C/C(=O)CC(=O)/C=C/c2ccc(O)c(OC)c2)ccc1O [curcumin, Curcumin]
inhibition of Aβ aggregation (in words) (Aβ aggregation): inhibits Aβ aggregation in the low µM range
